From patent US9682991B2, “Tricyclic compounds for use as kinase inhibitors” (FUNDACIÓN CENTRO NACIONAL DE INVESTIGACIONES ONCOLOGICAS …, priority 2009, dated 2017)
Where two headings read alike, the source gives them in different places.

Experiments:
PIM-2 = PIM-2 (Homo sapiens (Human), UniProt Q9P1W9); assay: PIM-2 biochemical assay (ADP Hunter); settings: semi-quantitative; read-out: PIM2 IC50
Text: The biochemical assay to measure PIM-2 activity relies on the ADP Hunter assay kit (DiscoveRx Corp., Cat. #90-0077), that determines the amount of ADP as direct product of the kinase enzyme activity.

PIM-1 = PIM-1 (Homo sapiens (Human), UniProt P11309); assay: PIM-1 biochemical assay (ADP Hunter)
PIM-1, sequence (P11309 whole entry): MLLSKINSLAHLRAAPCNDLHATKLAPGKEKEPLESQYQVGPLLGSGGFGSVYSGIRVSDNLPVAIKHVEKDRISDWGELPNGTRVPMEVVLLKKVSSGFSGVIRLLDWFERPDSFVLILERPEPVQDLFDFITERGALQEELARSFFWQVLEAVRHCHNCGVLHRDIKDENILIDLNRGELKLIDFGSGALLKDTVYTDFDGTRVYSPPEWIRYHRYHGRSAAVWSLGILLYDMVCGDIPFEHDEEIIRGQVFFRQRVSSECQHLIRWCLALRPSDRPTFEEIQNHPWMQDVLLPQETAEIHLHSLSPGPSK

[1] = read-out: PIM1 IC50, semi-quantitative

PIM-2, sequence (Q9P1W9 whole entry): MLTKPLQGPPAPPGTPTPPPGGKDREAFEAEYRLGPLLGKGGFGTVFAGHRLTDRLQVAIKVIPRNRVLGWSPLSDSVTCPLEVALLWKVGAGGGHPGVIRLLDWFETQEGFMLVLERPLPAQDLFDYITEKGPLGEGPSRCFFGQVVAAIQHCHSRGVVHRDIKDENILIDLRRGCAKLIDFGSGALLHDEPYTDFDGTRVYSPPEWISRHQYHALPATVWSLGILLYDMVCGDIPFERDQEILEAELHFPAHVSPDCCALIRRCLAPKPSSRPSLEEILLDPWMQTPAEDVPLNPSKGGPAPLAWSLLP

SMILES	IC50 (PIM-2) [nM]	IC50 (PIM-1) [nM]	IC50 (PIM-1; read-out: PIM1 IC50) [nM]	IC50 (PIM-1; [1]) [nM]
COc1ccc(-c2nnc3c4c(c(NCC5CCN(C)CC5)nn23)N(C)CCO4)cc1 [Example 1, [3-(4-Methoxy-phenyl)-6-methyl-7,8-dihydro-6H-9-oxa-1,2,3a,4,6-pentaaza-cyclopenta[a]naphthalen-5-yl]-(1-methyl-piperidin-4-ylmethyl)-amine]	> 1000	100 to 1000	–	–
COc1ccc(-c2nnc3c4c(c(NCCN5CCOCC5)nn23)N(C)CCO4)cc1 [Example 4, [3-(4-Methoxy-phenyl)-6-methyl-7,8-dihydro-6H-9-oxa-1,2,3a,4,6-pentaaza-cyclopenta[a]naphthalen-5-yl]-(2-morpholin-4-yl-ethyl)-amine]	> 1000	100 to 1000	811	–
CN1CCOc2c(NCc3ccc(F)cc3)nn3c(-c4cccc(OC(F)(F)F)c4)nnc3c21 [Example 10, (4-Fluoro-benzyl)-[9-methyl-3-(3-trifluoromethoxy-phenyl)-8,9-dihydro-7H-6-oxa-1,2,3a,4,9-pentaaza-cyclopenta[a]naphthalen-5-yl]-amine]	> 1000	–	–	> 1000
CCN1CCOc2c(NC3CCOCC3)nn3c(-c4cccc(OC(F)(F)F)c4)nnc3c21 [Example 14, [9-Ethyl-3-(3-trifluoromethoxy-phenyl)-8,9-dihydro-7H-6-oxa-1,2,3a,4,9-pentaaza-cyclopenta[a]naphthalen-5-yl]-(tetrahydro-pyran-4-yl)-amine]	> 1000	100 to 1000	583	–
COc1ccc(-c2nnc3c4c(c(NCc5ccc(F)cc5)nn23)N(C)CCN4C)cc1 [Example 15, (4-Fluoro-benzyl)-[3-(4-methoxy-phenyl)-6,9-dimethyl-6,7,8,9-tetrahydro-1,2,3a,4,6,9-hexaaza-cyclopenta[a]naphthalen-5-yl]-amine]	> 1000	> 1000	4350	–
COc1ccc(CNc2nn3c(-c4cccc(OC(F)(F)F)c4)nnc3c3c2N(C)CCO3)cc1OC [Example 24, (3,4-Dimethoxy-benzyl)-[6-methyl-3-(3-trifluoromethoxy-phenyl)-7,8-dihydro-6H-9-oxa-1,2,3a,4,6-pentaaza-cyclopenta[a]naphthalen-5-yl]-amine]	> 1000	100 to 1000	–	–
CN1CCC(CNc2nn3c(-c4ccc5[nH]ccc5c4)nnc3c3c2N(C)CCO3)CC1 [Example 33, [3-(1H-Indol-5-yl)-6-methyl-7,8-dihydro-6H-9-oxa-1,2,3a,4,6-pentaaza-cyclopenta[a]naphthalen-5-yl]-(1-methyl-piperidin-4-ylmethyl)-amine]	> 1000	100 to 1000	–	–
CC1COc2c(NCC3CCN(C)CC3)nn3c(-c4cccc(OC(F)(F)F)c4)nnc3c2N1C (stereo not shown) [Example 38, [8,9-Dimethyl-3-(3-trifluoromethoxy-phenyl)-8,9-dihydro-7H-6-oxa-1,2,3a,4,9-pentaaza-cyclopenta[a]naphthalen-5-yl]-(1-methyl-piperidin-4-ylmethyl)-amine]	–	100 to 1000	–	–
CC1COc2c(c(NCC3CCN(C)CC3)nn3c(-c4cccc(OC(F)(F)F)c4)nnc23)N1C (stereo not shown) [Example 39, [6,7-Dimethyl-3-(3-trifluoromethoxy-phenyl)-7,8-dihydro-6H-9-oxa-1,2,3a,4,6-pentaaza-cyclopenta[a]naphthalen-5-yl]-(1-methyl-piperidin-4-ylmethyl)-amine]	100 to 1000	–	–	< 100
CN1CCC(CNc2nn3c(-c4cccc(OC(F)(F)F)c4)nnc3c3c2OCCO3)CC1 [Example 41, (1-Methyl-piperidin-4-ylmethyl)-[3-(3-trifluoromethoxy-phenyl)-7,8-dihydro-6,9-dioxa-1,2,3a,4-tetraaza-cyclopenta[a]naphthalen-5-yl]-amine]	100 to 1000	–	–	< 100
CNC1CCN(c2nn3c(-c4cccc(OC(F)(F)F)c4)nnc3c3c2OCCN3C)CC1 [Example 44, Methyl-{1-[9-methyl-3-(3-trifluoromethoxy-phenyl)-8,9-dihydro-7H-6-oxa-1,2,3a,4,9-pentaaza-cyclopenta[a]naphthalen-5-yl]-piperidin-4-yl}-amine]	> 1000	100 to 1000	–	–
CN1CCOc2c(N(C)C3CCNCC3)nn3c(-c4cccc(OC(F)(F)F)c4)nnc3c21 [Example 45, Methyl-[9-methyl-3-(3-trifluoromethoxy-phenyl)-8,9-dihydro-7H-6-oxa-1,2,3a,4,9-pentaaza-cyclopenta[a]naphthalen-5-yl]-piperidin-4-yl-amine]	> 1000	100 to 1000	–	–

Other lines, results leading:

IC50 (PIM-2) [nM]	IC50 (PIM-1) [nM]	IC50 (PIM-1; read-out: PIM1 IC50) [nM]	IC50 (PIM-1; [1]) [nM]	SMILES
> 1000	100 to 1000	–	–	CN1CCC(Nc2nn3c(-c4cccc(OC(F)(F)F)c4)nnc3c3c2OCCN3C)CC1 [Example 3, (1-Methyl-piperidin-4-yl)-[9-methyl-3-(3-trifluoromethoxy-phenyl)-8,9-dihydro-7H-6-oxa-1,2,3a,4,9-pentaaza-cyclopenta[a]naphthalen-5-yl]-amine]
> 1000	100 to 1000	–	–	CN1CCOc2c(NCC3CC3)nn3c(-c4cccc(OC(F)(F)F)c4)nnc3c21 [Example 8, Cyclopropylmethyl-[9-methyl-3-(3-trifluoromethoxy-phenyl)-8,9-dihydro-7H-6-oxa-1,2,3a,4,9-pentaaza-cyclopenta[a]naphthalen-5-yl]-amine]
100 to 1000	–	–	< 100	CCN1CCOc2c1c(NCC1CC1)nn1c(-c3cccc(OC(F)(F)F)c3)nnc21 [Example 11, Cyclopropylmethyl-[6-ethyl-3-(3-trifluoromethoxy-phenyl)-7,8-dihydro-6H-9-oxa-1,2,3a,4,6-pentaaza-cyclopenta[a]naphthalen-5-yl]-amine]
> 1000	–	–	> 1000	CN1CCC(CN(C)c2nn3c(-c4cccc(OC(F)(F)F)c4)nnc3c3c2OCCN3C)CC1 [Example 18, Methyl-(1-methyl-piperidin-4-ylmethyl)-[9-methyl-3-(3-trifluoromethoxy-phenyl)-8,9-dihydro-7H-6-oxa-1,2,3a,4,9-pentaaza-cyclopenta[a]naphthalen-5-yl]-amine]
–	–	–	< 100	CN1CCOc2c1c(N[C@H]1CC[C@H](O)CC1)nn1c(-c3cccc(OC(F)(F)F)c3)nnc21 [Example 19, 4-[6-Methyl-3-(3-trifluoromethoxy-phenyl)-7,8-dihydro-6H-9-oxa-1,2,3a,4,6-pentaaza-cyclopenta[a]naphthalen-5-ylamino]-cyclohexanol]
> 1000	100 to 1000	678	–	CN1CCOc2c(NCCCO)nn3c(-c4cccc(OC(F)(F)F)c4)nnc3c21 [Example 22, 3-[9-Methyl-3-(3-trifluoromethoxy-phenyl)-8,9-dihydro-7H-6-oxa-1,2,3a,4,9-pentaaza-cyclopenta[a]naphthalen-5-ylamino]-propan-1-ol]
< 100	–	–	< 100	CN1CCOc2c1c(N(C)[C@H]1CC[C@H](O)CC1)nn1c(-c3cccc(OC(F)(F)F)c3)nnc21 [Example 35, 4-{Methyl-[6-methyl-3-(3-trifluoromethoxy-phenyl)-7,8-dihydro-6H-9-oxa-1,2,3a,4,6-pentaaza-cyclopenta[a]naphthalen-5-yl]-amino}-cyclohexanol]
–	100 to 1000	–	–	CN1CCOc2c(NCCN3CCNCC3)nn3c(-c4cccc(OC(F)(F)F)c4)nnc3c21 [Example 42, [9-Methyl-3-(3-trifluoromethoxy-phenyl)-8,9-dihydro-7H-6-oxa-1,2,3a,4,9-pentaaza-cyclopenta[a]naphthalen-5-yl]-(2-piperazin-1-yl-ethyl)-amine]
> 1000	100 to 1000	–	–	CN1CCOc2c(N3CCC(N)CC3)nn3c(-c4cccc(OC(F)(F)F)c4)nnc3c21 [Example 46, 1-[9-Methyl-3-(3-trifluoromethoxy-phenyl)-8,9-dihydro-7H-6-oxa-1,2,3a,4,9-pentaaza-cyclopenta[a]naphthalen-5-yl]-piperidin-4-ylamine]
–	–	–	< 100	CC1COc2c(c(N3CCC4(CC3)CC(N)C4)nn3c(-c4cccc(OC(F)(F)F)c4)nnc23)N1C (stereo not shown) [Example 50, 7-[6,7-Dimethyl-3-(3-trifluoromethoxy-phenyl)-7,8-dihydro-6H-9-oxa-1,2,3a,4,6-pentaaza-cyclopenta[a]naphthalen-5-yl]-7-aza-spiro[3.5]non-2-ylamine]
–	–	–	< 100	CN(CC1CCNCC1)c1nn2c(-c3cccc(OC(F)(F)F)c3)nnc2c2c1N(C)CCO2 [Example 64, Methyl-[6-methyl-3-(3-trifluoromethoxy-phenyl)-7,8-dihydro-6H-9-oxa-1,2,3a,4,6-pentaaza-cyclopenta[a]naphthalen-5-yl]-piperidin-4-ylmethyl-amine]
–	–	–	< 100	CN1CCOc2c1c(N1CCC3(CCCNC3)CC1)nn1c(-c3cccc(OC(F)(F)F)c3)nnc21 [Example 67, 5-(2,9-Diaza-spiro[5.5]undec-9-yl)-6-methyl-3-(3-trifluoromethoxy-phenyl)-7,8-dihydro-6H-9-oxa-1,2,3a,4,6-pentaaza-cyclopenta[a]naphthalene]
–	–	–	< 100	CN1CCOc2c1c(N[C@H]1CC[C@@H](N)CC1)nn1c(-c3cccc(OC(F)(F)F)c3)nnc21 [Example 70, N-[6-Methyl-3-(3-trifluoromethoxy-phenyl)-7,8-dihydro-6H-9-oxa-1,2,3a,4,6-pentaaza-cyclopenta[a]naphthalen-5-yl]-cyclohexane-1,4-diamine]
–	–	–	< 100	CN1CCOc2c1c(N[C@H]1CC[C@H](N)CC1)nn1c(-c3cccc(OC(F)(F)F)c3)nnc21 [Example 71, N-[6-Methyl-3-(3-trifluoromethoxy-phenyl)-7,8-dihydro-6H-9-oxa-1,2,3a,4,6-pentaaza-cyclopenta[a]naphthalen-5-yl]-cyclohexane-1,4-diamine]
–	–	–	< 100	CC(C)NC1CC2(CCN(c3nn4c(-c5cccc(OC(F)(F)F)c5)nnc4c4c3N(C)CCO4)CC2)C1 [Example 87, Isopropyl-{7-[6-methyl-3-(3-trifluoromethoxy-phenyl)-7,8-dihydro-6H-9-oxa-1,2,3a,4,6-pentaaza-cyclopenta[a]naphthalen-5-yl]-7-aza-spiro[3.5]non-2-yl}-amine]
